From US20230330093A1, “APPLICATION OF NITROGEN-CONTAINING SATURATED HETEROCYCLIC COMPOUND” (SHANGHAI PHARMACEUTICALS HOLDING CO., LTD., priority 2020, published 2023)
Values joined by “and” are separate entries in the source; they are usually repeats but may differ in a detail not shown here. Identical values can stand only once.

Columns and labels:
[1] = system: rhesus monkeys with spontaneous chronic kidney disease; test: Effect on cystatin C (CysC), 8-week administration; assay type: in vivo, Macaca mulatta (Rhesus Macaque); conditions: Valsartan group (n = 3)
Experimental: (§1) In the trial, animals were brought in three stages. […] Glomerular filtration rate […]: creatinine (Cr-P), urea nitrogen (BUN) and cystatin (CysC) were detected, and the eGFR value was obtained by calculation. It was performed once before the administration and once every two weeks after the administration. […] ELISA kit was used for NT-proBNP test. [table]

[2] = system: rhesus monkeys with spontaneous chronic kidney disease; test: Effect on BUN, 8-week administration; assay type: in vivo, Macaca mulatta (Rhesus Macaque); conditions: Valsartan group (n = 3)
Experimental: as §1

[3] = system: rhesus monkeys with spontaneous chronic kidney disease; test: Effect on blood pressure (SBP, DBP, MBP, HR) after anesthesia, 8-week administration; assay type: in vivo, Macaca mulatta (Rhesus Macaque); conditions: for DBP / SBP: Valsartan group (n = 3)
Text: (§2) In the trial, animals were brought in three stages.
Route of administration: Oral administration.
After anesthesia, the animal was placed in a supine position. The left upper arm was shaved clean, and a suitable size cuff was tied according to the standard. The blood oxygen probe was clamped on the animal's finger or toe (except for the left hand), and the red light-sensitive surface was on the side of the finger pad. The blood pressure of the animal was continuously measured for 3 times in the automatic mode with an interval of 1 min. If the difference of DBP, SBP and MBP of blood pressure measured more than three times was not significant (the difference between the highest value and the lowest value was less than 15 mmHg), the measurement was completed.
Testing equipment: GE B40i electrophysiological monitor.
See Table 16 for the effects of administration of each administration group on blood pressure. The blood pressure test of primates required anesthesia, so it was necessary to control the variability of heart rate at various time points to make statistics.

[4] = system: rhesus monkeys with spontaneous chronic kidney disease; test: Effect on heart function, cardiac Doppler ultrasound, 8-week administration; conditions: for Ea / LVEF: Valsartan group (n = 3)
Experimental: as §2
This was performed once before administration and once after administration. UACR=MALB/Cr—U. • Blood pressure: the blood pressure was checked after anesthesia, including systolic blood pressure (SBP), diastolic blood pressure (DBP), mean blood pressure (MBP) and heart rate (HR). This was performed once before administration and once at weeks 4 and 8 respectively after administration. • Cardiac GE Doppler ultrasound: historical cardiac ultrasonography once within 1 year (selected animals), once before administration (within 30 days (D-30) of the baseline period), and once at week 8 after administration.
Anesthesia method: 15 mg/kg of ketamine hydrochloride was used for intramuscular injection anesthesia. According to the animal anesthesia state, the supplemental anesthesia will be performed after judgment by veterinarian. Each supplemental anesthesia dose was ½ of the initial dose.
Detection method: The animal was placed in the left decubitus position, and the 6S-RS probe (frequency 2.7-8.0 MHz) was used for image acquisition.
Analysis method: After the image was collected and saved, the supporting analysis workstation EchoPAC Software was used to repeatedly detect various indicators of systolic and diastolic functions in 3 consecutive cardiac cycles.
Testing indicators and ultrasonic technology: see Table 9 below.
Testing equipment: GE Vivid S5 color Doppler ultrasound diagnostic system.

[5] = system: rhesus monkeys with spontaneous chronic kidney disease; test: Effect on NT-proBNP (ELISA), 8-week administration; assay type: in vivo, Macaca mulatta (Rhesus Macaque); conditions: Valsartan group (n = 3)
Text: In the trial, animals were brought in three stages. […] ELISA kit was used for NT-proBNP test. [table]

[6] = Baseline, single animals and Mean ± SD
[7] = Baseline, single animals and Mean ± SD, mean
[8] = Valsartan group (n=3), after W8 administration, p<0.01 vs placebo

CCCCC(=O)N(Cc1ccc(-c2ccccc2-c2nnn[nH]2)cc1)[C@H](C(=O)O)C(C)C [Valsartan, reference compound]
CysC ([1]; 2 weeks): 1.44 mg/L and 1.62 mg/L and 1.76 mg/L | CysC ([1]; 2 weeks, mean): 1.61 ± 0.16 mg/L | CysC ([1]; 4 weeks): 1.47 mg/L and 1.65 mg/L and 1.74 mg/L | CysC ([1]; 4 weeks, mean): 1.62 ± 0.14 mg/L | CysC ([1]; 6 weeks): 1.58 mg/L and 1.69 mg/L | CysC ([1]; 6 weeks, mean): 1.62 ± 0.06 mg/L | CysC ([1]; 8 weeks): 1.59 mg/L and 1.64 mg/L and 1.63 mg/L | CysC ([1]; 8 weeks, mean): 1.62 ± 0.03 mg/L | CysC [1, 6]: 1.66 mg/L and 1.68 mg/L and 1.73 mg/L | CysC [1, 7]: 1.69 ± 0.04 mg/L | BUN ([2]; 4 weeks): 22.2 mg/dL and 29.1 mg/dL and 33.4 mg/dL | BUN ([2]; 4 weeks, mean): 28.2 ± 5.7 mg/dL | BUN ([2]; 8 weeks): 19.5 mg/dL and 33.4 mg/dL and 26.0 mg/dL | BUN ([2]; 8 weeks, mean): 26.3 ± 7.0 mg/dL | BUN ([2]; Baseline2, single animals and Mean ± SD): 19.0 mg/dL and 25.4 mg/dL and 31.2 mg/dL | BUN ([2]; Baseline2, single animals and Mean ± SD, mean): 25.2 ± 6.1 mg/dL | DBP ([3]; 4 weeks): 62 mmHg and 53 mmHg | SBP ([3]; 4 weeks): 130 mmHg and 106 mmHg and 138 mmHg | DBP ([3]; 4 weeks, mean): 59 ± 5 mmHg | SBP ([3]; 4 weeks, mean): 125 ± 17 mmHg | DBP ([3]; 8 weeks): 61 mmHg and 53 mmHg and 75 mmHg | SBP ([3]; 8 weeks): 121 mmHg and 107 mmHg and 133 mmHg | DBP ([3]; 8 weeks, mean): 63 ± 11 mmHg | SBP ([3]; 8 weeks, mean): 120 ± 13 mmHg | DBP ([3]; Baseline): 67 mmHg and 60 mmHg and 82 mmHg | DBP ([3]; Baseline, mean): 70 ± 11 mmHg | SBP [3, 6]: 131 mmHg and 125 mmHg and 148 mmHg | SBP [3, 7]: 135 ± 12 mmHg | DBP decreased by on average, compared with the baseline [3, 8]: 7±0 mmHg | SBP decreased by on average, compared with the baseline [3, 8]: 14±4 mmHg | Ea ([4]; 8 weeks): 7.01 cm/s and 7.17 cm/s and 4.61 cm/s | LVEF ([4]; 8 weeks): 64.09% and 57.98% and 61.97% | Ea ([4]; Baseline): 4.16 cm/s and 5.14 cm/s and 3.44 cm/s | LVEF [4, 6]: 64.02% and 58.75% and 59.26% | adverse reaction in the systolic and diastolic function (echocardiography) ([4]; each dose group, 8-week administration): no obvious adverse reaction | NT-proBNP ([5]; 4 weeks): 179 pg/mL and 260 pg/mL and 285 pg/mL | NT-proBNP ([5]; 4 weeks, mean): 241 ± 56 pg/mL | NT-proBNP ([5]; 8 weeks): 217 pg/mL and 288 pg/mL and 291 pg/mL | NT-proBNP ([5]; 8 weeks, mean): 266 ± 42 pg/mL | NT-proBNP [5, 6]: 211 pg/mL and 500 pg/mL and 394 pg/mL | NT-proBNP [5, 7]: 368 ± 146 pg/mL
